In one assay the target is T1, human H1 receptor (Homo sapiens, UniProt P35367).
T1 construct: expressed in transfected cells
Description: Histamine H1 functional antagonist assay: determination of functional pKi values (FLIPR). The format is cell-based. Particulars: CHO cells expressing human H1 receptor, histamine at EC80, read-out: average pKi (pKb) at H1 (converted). On the procedure: The human H1 receptor is cloned using known procedures described in the literature [Biochem. Biophys. Res. Commun., 201(2):894 (1994)]. Chinese hamster ovary (CHO) cells stably expressing the human H1 receptor are generated according to known procedures described in the literature [Br. J. Pharmacol., 117(6):1071 (1996)]. The histamine H1 cell line is seeded into non-coated black-walled clear bottom 384-well tissue culture plates in alpha minimum essential medium (Gibco/Invitrogen, cat no. 22561-021), supplemented with 10′)/0 dialysed foetal calf serum (Gibco/Invitrogen cat no. 12480-021) and 2 mM L-glutamine (Gibco/Invitrogen cat no 25030-024) and is maintained overnight at 5% CO2, 37° C. Excess medium is removed from each well to leave 10 μl. 30 μl loading dye (250 μM Brilliant Black, 2 μM Fluo-4 diluted in Tyrodes buffer+probenecid (145 mM NaCl, 2.5 mM KCl, 10 mM HEPES, 10 mM D-glucose, 1.2 mM MgCl2, 1.5 mM CaCl2, 2.5 mM probenecid, pH adjusted to 7.40 with NaOH 1.0 M)) is added to each well and the plates are incubated for 60 min at 5% CO2, 37° C. 10 μl of test compound, diluted to the required concentration in Tyrodes buffer+probenecid (or 10 μl Tyrodes buffer+probenecid as a control) is added to each well and the plate is incubated for 30 min at 37° C., 5% CO2. The plates are then placed into a FLIPR™(Molecular Devices, UK) to monitor cell fluorescence (λex=488 nm, λEM=540 nm) in the manner described in Sullivan et al., (In: Lambert DG (ed.), Calcium Signaling Protocols, New Jersey: Humana Press, 1999, 125-136) before and after the addition of 10 μl histamine at a concentration that results in the final assay concentration of histamine being EC80. Functional antagonism is indicated by a suppression of histamine induced increase in fluorescence, as measured by the FLIPR™ system (Molecular Devices). By means of concentration effect curves, functional affinities are determined using standard pharmacological mathematical analysis.

Another assay has as its target T2, histamine H3 receptor (Homo sapiens, UniProt Q9Y5N1).
T2 construct: expressed in transfected cells; host or cells: CHO K1 cells with pSwitch/pGeneH3 (GeneSwitch, mifepristone-induced), clone 3H3; membrane preparation
Nature of the assay: Histamine H3 functional antagonist assay (GTPγS, membranes). Particulars: CHO K1 membranes, [35S]-GTPγS, histamine at EC80; read-out: average pKi (pKb) at H3 (converted). The format is biochemical. On the procedure: The histamine H3 cDNA is isolated from its holding vector, pcDNA3.1 TOPO (InVitrogen), by restriction digestion of plasmid DNA with the enzymes BamH1 and Not-1 and is ligated into the inducible expression vector pGene (InVitrogen) digested with the same enzymes. The GeneSwitchTM system (a system where in transgene expression is switched off in the absence of an inducer and switched on in the presence of an inducer) is performed as described in U.S. Pat. Nos. 5,364,791; 5,874,534; and 5,935,934. Ligated DNA is transformed into competent DH5α E. coli host bacterial cells and is plated onto Luria Broth (LB) agar containing ZeocinTM (an antibiotic which allows the selection of cells expressing the sh ble gene which is present on pGene and pSwitch) at 50 μgml^-1. Colonies containing the re-ligated plasmid are identified by restriction analysis. DNA for transfection into mammalian cells is prepared from 250 ml cultures of the host bacterium containing the […]3 plasmid and is isolated using a DNA preparation kit (Qiagen Midi-Prep) as per manufacturers guidelines (Qiagen). CHO K1 cells previously transfected with the pSwitch regulatory plasmid (InVitrogen) are seeded at 2×10^6 cells per T75 flask in Complete Medium, containing Hams F12 (GIBCOBRL, Life Technologies) medium supplemented with 10% v/v dialysed foetal bovine serum, L-glutamine, and hygromycin (100 μgml^-1), 24 h prior to use. Plasmid DNA is transfected into the cells using Lipofectamine plus according to the manufacturer's guidelines (InVitrogen). 48 h post transfection, cells are placed into complete medium supplemented with 500 μgml^-1 ZeocinTM. 10-14 days post selection, 10 nM Mifepristone (InVitrogen) is added to the culture medium to induce the expression of the receptor. 18 h post induction, cells are detached from the flask using ethylenediamine tetra-acetic acid (EDTA; 1:5000; InVitrogen), following several washes with PBS, pH 7.4 and are resuspended in Sorting Medium containing Minimum Essential Medium (MEM), without phenol red, and are supplemented with Earles salts and 3% Foetal Clone II (Hyclone). Approximately 1×10^7 cells are examined for receptor expression by staining with a rabbit polyclonal antibody, 4a, raised against the N-terminal domain of the histamine H3 receptor, are incubated on ice for 60 min, followed by two washes in sorting medium. Receptor bound antibody is detected by incubation of the cells for 60 min on ice with a goat anti rabbit antibody, conjugated with Alexa 488 fluorescence marker (Molecular Probes). Following two further washes with Sorting Medium, cells are filtered through a 50 μm FilconTM (BD Biosciences) and then are analysed on a FACS Vantage SE Flow Cytometer fitted with an Automatic Cell Deposition Unit. Control cells are non-induced cells treated in an analogous manner. Positively stained cells are sorted as single cells into 96-well plates, containing Complete Medium containing 500 μgml^-1 ZeocinTM and are allowed to expand before reanalysis for receptor expression via antibody and ligand binding studies. One clone, 3H3, is selected for membrane preparation. All steps of the protocol are carried out at 4° C. and with pre-cooled reagents. The cell pellet is resuspended in 10 volumes of homogenisation buffer (50 mM N-2-hydroxyethylpiperazine-N'-2-ethanesulfonic acid (HEPES), 1 mM ethylenediamine tetra-acetic acid (EDTA), pH 7.4 with KOH, supplemented with 10^-6 M leupeptin (acetyl-leucyl-leucyl-arginal; Sigma L2884), 25 μgml^-1 bacitracin (Sigma B0125), 1 mM phenylmethylsulfonyl fluoride (PMSF) and 2×10^-6 M pepstain A (Sigma)). The cells are then homogenised by 2×15 sec bursts in a 1 L glass Waring blender, followed by centrifugation at 500 g for 20 min. The supernatant is then spun at 48,000 g for 30 min. The pellet is resuspended in homogenisation buffer (4× the volume of the original cell pellet) by vortexing for 5 sec, followed by homogenisation in a Dounce homogeniser (10-15 strokes). […]

T1 sequence (P35367 whole entry): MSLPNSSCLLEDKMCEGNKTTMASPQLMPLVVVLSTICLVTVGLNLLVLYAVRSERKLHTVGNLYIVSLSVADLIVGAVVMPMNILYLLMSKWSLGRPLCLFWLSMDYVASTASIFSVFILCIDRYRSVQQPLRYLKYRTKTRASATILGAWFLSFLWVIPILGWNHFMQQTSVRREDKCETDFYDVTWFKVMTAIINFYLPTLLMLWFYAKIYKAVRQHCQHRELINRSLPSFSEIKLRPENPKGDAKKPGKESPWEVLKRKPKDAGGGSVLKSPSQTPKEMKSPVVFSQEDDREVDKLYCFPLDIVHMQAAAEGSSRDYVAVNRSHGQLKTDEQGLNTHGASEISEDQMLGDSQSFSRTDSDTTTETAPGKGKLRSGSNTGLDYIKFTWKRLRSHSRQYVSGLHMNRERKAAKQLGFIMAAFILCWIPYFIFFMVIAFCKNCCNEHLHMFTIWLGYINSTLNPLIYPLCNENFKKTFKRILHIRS
T2 sequence (Q9Y5N1 whole entry, species assumed): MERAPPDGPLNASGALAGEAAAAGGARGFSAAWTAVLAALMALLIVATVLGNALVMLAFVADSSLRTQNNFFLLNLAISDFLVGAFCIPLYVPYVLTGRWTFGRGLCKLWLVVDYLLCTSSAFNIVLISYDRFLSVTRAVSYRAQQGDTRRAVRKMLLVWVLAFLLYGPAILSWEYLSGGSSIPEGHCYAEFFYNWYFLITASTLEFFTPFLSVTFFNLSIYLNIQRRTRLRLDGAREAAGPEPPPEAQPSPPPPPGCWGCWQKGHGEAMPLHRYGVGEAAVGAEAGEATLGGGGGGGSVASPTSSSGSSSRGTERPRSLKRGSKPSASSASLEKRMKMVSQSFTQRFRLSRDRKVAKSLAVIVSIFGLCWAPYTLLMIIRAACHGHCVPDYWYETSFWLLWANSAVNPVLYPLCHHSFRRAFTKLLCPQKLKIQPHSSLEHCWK

In the case of `CCCCc1cc(OC2CCN(C[C@H]3CC[C@H](C(=O)NCc4ccc(C)cc4)CC3)CC2)c2ncccc2c1` [Example 60, trans-4-({4-[(6-butyl-8-quinolinyl)oxy]-1-piperidinyl}methyl)-N-[(4-methylphenyl)methyl]cyclohexane carboxamide], the Ki on human H1 receptor is < 100 nM; at histamine H3 receptor, > 316 nM.
As for `CCCCc1cc(OC2CCN(CCC(=O)N(CC)CC)CC2)c2ncccc2c1` [Example 7, 3-{4-[(6-Butyl-8-quinolinyl)oxy]-1-piperidinyl}-N,N-diethylpropanamide], the Ki on human H1 receptor is < 10 nM; on histamine H3 receptor, > 316 nM.
For `CCCCc1cc(OC2CCN(CCCNC(=O)CCCOC)CC2)c2ncccc2c1` [Example 83, N-(3-{4-[(6-butyl-8-quinolinyl)oxy]-1-piperidinyl}propyl)-4-(methyloxy) butanamide] the same measures were < 100 nM and > 316 nM.
For the compound `CCCCc1cc(OC2CCN(CC3CCN(C(C)=O)CC3)CC2)c2ncccc2c1` [Example 1, 8-({1-[(1-Acetyl-4-piperidinyl)methyl]-4-piperidinyl}oxy)-6-butylquinoline], the values for the Ki at human H1 receptor and at histamine H3 receptor were < 100 nM and > 316 nM, respectively.
In the case of `CCCCc1cc(OC2CCN(CCCCC(=O)N(CC)CC)CC2)c2ncccc2c1` [Example 27, 5-{4-[(6-butyl-8-quinolinyl)oxy]-1-piperidinyl}-N,N-diethylpentanamide], the Ki on human H1 receptor was < 10 nM; on histamine H3 receptor, > 3160 nM.
Take `CCCCc1cc(OC2CCN(CCCC(=O)NCCCOC)CC2)c2ncccc2c1` [Example 21, 4-{4-[(6-butyl-8-quinolinyl)oxy]-1-piperidinyl}-N-[3-(methyloxy)propyl] butanamide]: the figures for the Ki on human H1 receptor and at histamine H3 receptor were < 10 nM and > 3160 nM, respectively.
For `CCCCc1cc(OC2CCN(CCCCNC(=O)C(C)C)CC2)c2ncccc2c1` [Example 66, N-(4-{4-[(6-butyl-8-quinolinyl)oxy]-1-piperidinyl}butyl)-2-methylpropanamide] the same measures were < 100 nM and > 316 nM.
Turning to `CCCCc1cc(OC2CCN(CCCCC(=O)N3CCCCC3)CC2)c2ncccc2c1` [Example 31, 6-butyl-8-({1-[5-oxo-5-(1-piperidinyl)pentyl]-4-piperidinyl}oxy) quinoline], the Ki at human H1 receptor is < 10 nM; at histamine H3 receptor, > 3160 nM.
`CCCCc1cc(OC2CCN(CC3CCN(C(=O)CC)CC3)CC2)c2ncccc2c1` [Example 2, 6-Butyl-8-({1-[(1-propanoyl-4-piperidinyl)methyl]-4-piperidinyl}oxy)quinoline]: the Ki was < 100 nM on human H1 receptor and > 316 nM on histamine H3 receptor.
`CCCCc1cc(OC2CCN(CCCC(=O)N3CCCCC3)CC2)c2ncccc2c1` [Example 24, 6-butyl-8-({1-[4-oxo-4-(1-piperidinyl)butyl]-4-piperidinyl}oxy)quinoline]: the Ki on human H1 receptor is < 100 nM; at histamine H3 receptor, > 3160 nM.
For `CCCCc1cc(OC2CCN(C[C@H]3CC[C@H](C(=O)NCCC(C)C)CC3)CC2)c2ncccc2c1` [Example 61, trans-4-({4-[(6-butyl-8-quinolinyl)oxy]-1-piperidinyl}methyl)-N-(3-methylbutyl) cyclohexane carboxamide], in that order: < 10 nM and > 316 nM.
In the case of `CCCCc1cc(OC2CCN(CCCCNC(=O)CCC)CC2)c2ncccc2c1` [Example 65, N-(4-{4-[(6-butyl-8-quinolinyl)oxy]-1-piperidinyl}butyl) butanamide], the Ki at human H1 receptor was < 10 nM; at histamine H3 receptor it was > 316 nM.
Take `CCCCc1cc(OC2CCN(CCCNC(=O)CC)CC2)c2ncccc2c1` [Example 86, N-(3-{4-[(6-Butyl-8-quinolinyl)oxy]-1-piperidinyl}propyl)propanamide]: the Ki on human H1 receptor is < 10 nM; at histamine H3 receptor it was > 316 nM.
For the compound `CCCCc1cc(OC2CCN(CCCCCNC(=O)C3CCCCC3)CC2)c2ncccc2c1` [Example 78, N-(5-{4-[(6-butyl-8-quinolinyl)oxy]-1-piperidinyl}pentyl) cyclohexane carboxamide], the Ki on human H1 receptor is < 10 nM; on histamine H3 receptor, > 316 nM.
In the case of `CCCCc1cc(O[C@H]2CCN(CCCC(=O)N3CCCCC3)C2)c2ncccc2c1` [Example 39, 6-butyl-8-({(3S)-1-[4-oxo-4-(1-piperidinyl)butyl]-3-pyrrolidinyl}oxy)quinoline], the Ki is < 10 nM at human H1 receptor and > 316 nM at histamine H3 receptor.
In the case of `CCCCCCc1cc(OC2CCN(C[C@H]3CC[C@H](C(=O)N4CCCCC4)CC3)CC2)c2ncccc2c1` [Example 51, 6-hexyl-8-[(1-{[trans-4-(1-piperidinylcarbonyl)cyclohexyl]methyl}-4-piperidinyl)oxy]quinoline], the Ki was < 100 nM at human H1 receptor and > 316 nM at histamine H3 receptor.
For `CCCCc1cc(OC2CCN(CCC(=O)NCC)CC2)c2ncccc2c1` [Example 15, 3-{4-[(6-butyl-8-quinolinyl)oxy]-1-piperidinyl}-N-ethylpropanamide], in that order: < 100 nM and > 3160 nM.
Regarding `CCCCCc1cc(OC2CCN(CCCNC(=O)CC)CC2)c2ncccc2c1` [Example 90, N-(3-{4-[(6-Pentyl-8-quinolinyl)oxy]-1-piperidinyl}propyl)propanamide], the Ki was < 10 nM on human H1 receptor and > 316 nM at histamine H3 receptor.
Regarding `CCCCc1cc(OC2CCN(CCCCNC(=O)C(C)(C)C)CC2)c2ncccc2c1` [Example 67, N-(4-{4-[(6-butyl-8-quinolinyl)oxy]-1-piperidinyl}butyl)-2,2-dimethyl propanamide], the Ki at human H1 receptor is < 10 nM; at histamine H3 receptor, > 316 nM.
Regarding `CCCCc1cc(OC2CCN(CCC(=O)N3CCCCC3)CC2)c2ncccc2c1` [Example 18, 6-butyl-8-({1-[3-oxo-3-(1-piperidinyl)propyl]-4-piperidinyl}oxy) quinoline], the Ki on human H1 receptor was < 10 nM; on histamine H3 receptor it was > 316 nM.

Source of the values: patent US20100222349A1, “QUINOLINE DERIVATIVES USED TO TREAT INFLAMMATORY AND ALLERGIC DISEASES” (Glaxo Group Limited, priority 2007, published 2010).
